Experiments:
[1] = test system: Erysiphe graminis f. sp. tritici; assay: Test A: wheat powdery mildew, preventive spray on wheat seedlings, visual disease rating; type: in vivo
How it was run: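 Acetone/water (50/50) suspension with 250 ppm surfactant sprayed to run-off on wheat seedlings (200 ppm ≈ 500 g/ha); inoculated next day with E. graminis spore dust. Incubated 8 days at 20° C, then visually rated 0–100% disease control versus untreated controls; tests at 200 ppm or 40 ppm.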

[2] = test system: Puccinia recondite f. sp. tritici; assay: Test B: wheat leaf rust, preventive spray on wheat seedlings, visual disease rating; type: in vivo
How it was run: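 Wheat seedlings were sprayed to run-off with compound suspension, 200 ppm (≈500 g/ha) or 40 ppm where marked, containing surfactant in acetone/water. Inoculation with Puccinia recondita spores followed one day later, then 24 h in saturated humidity at 20° C and 7 days at 20° C. Disease control was rated visually, 0–100% versus controls.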

[3] = test system: Septoria tritici; assay: Test C: wheat leaf blotch, preventive spray on wheat seedlings, visual disease rating; type: in vivo
How it was run: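 Wheat seedlings sprayed to run-off with compound in acetone/water plus 250 ppm surfactant at 200 ppm (≈500 g/ha), or 40 ppm where marked; inoculated with Septoria tritici next day. Held saturated at 20 °C for 48 h, then 19 days at 20 °C; disease control rated visually 0–100 versus controls.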

[4] = test system: Septoria nodorum; assay: Test D: wheat glume blotch, preventive spray on wheat seedlings, visual disease rating; type: in vivo
How it was run: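 Compounds in 3% acetone, then 50/50 acetone–water with 250 ppm Trem 014, sprayed to run-off at 200 ppm (500 g/ha; some at 40 ppm) one day before spore inoculation. Held 48 h saturated at 20 °C, then 7 days at 20 °C; visual rating as % disease control vs untreated (0–100).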

[5] = test system: Alternaria solani; assay: Test E: tomato early blight, preventive spray on tomato seedlings, visual disease rating; type: in vivo
How it was run: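 Seedlings sprayed to run-off with compound in acetone/water plus 250 ppm Trem 014 (200 ppm ≈ 500 g/ha), inoculated with spores next day. Held 48 h saturated at 27 °C, then 5 days at 20 °C; visual rating 0–100% disease control relative to controls.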

[6] = test system: Botrytis cinerea; assay: Test F: tomato botrytis, preventive spray on tomato seedlings, visual disease rating; type: in vivo
How it was run: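 Tomato seedlings sprayed to run-off with compound suspended in acetone/water (50/50) plus 250 ppm Trem 014, at 200 ppm (≈500 g/ha) or 40 ppm where marked. Inoculated next day with B. cinerea spores, 48 h saturated atmosphere at 20 °C, then 3 days at 24 °C. Visual rating, 0–100% disease control relative to controls.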

[7] = test system: Rhizoctonia oryzae; assay: Test G: turf brown patch, preventive spray on creeping bent grass seedlings, visual disease rating; type: in vivo; conditions: for pest or weed control at 200 ppm: Waitea circinata, in Agrostis stolonifera, 120 h
Source text: General protocol for preparing test suspensions for Tests A-H: The test compounds were first dissolved in acetone in an amount equal to 3% of the final volume and then suspended at the desired concentration (in ppm) in acetone and purified water (50/50 mix) containing 250 ppm of the surfactant Trem® 014 (polyhydric alcohol esters). The resulting test suspensions were then used in tests A-H. Spraying a 200 ppm test suspension to the point of run-off on the test plants was the equivalent of a rate of 500 g/ha.
The test suspension was sprayed to the point of run-off on creeping bent grass seedlings. The following day the seedlings were inoculated with a spore suspension of Rhizoctonia oryzae (the causal agent of turf brown patch) and incubated in a saturated atmosphere at 27° C. for 48 h, and then moved to a growth chamber at 27° C. for 3 days, after which time disease ratings were visually made.
Results for Tests A-H are given in Table A. In the table, a rating of 100 indicates 100% disease control and a rating of 0 indicates no disease control (relative to the controls). A dash (-) indicates no test results. All results are for compounds tested at 200 ppm except where the compound number is followed by “*” which indicates the compound was tested at 40 ppm.

[8] = test system: Plasmopara viticola; assay: Test H: grape downy mildew, spray after inoculation of grape seedlings, visual disease rating; type: in vivo; conditions: for pest or weed control at 200 ppm: Plasmopara viticola, 192 h
[9] = Blumeria graminis, 192 h, 200 ppm, 100 = 100% disease control, 0 = no control
[10] = 192 h, 200 ppm, 100 = 100% disease control, 0 = no control
[11] = Zymoseptoria tritici, 504 h, 200 ppm, 100 = 100% disease control, 0 = no control
[12] = Parastagonospora nodorum, 216 h, 200 ppm, 100 = 100% disease control, 0 = no control
[13] = Alternaria solani, 168 h, 200 ppm, 100 = 100% disease control, 0 = no control
[14] = Botrytis cinerea, 120 h, 200 ppm, 100 = 100% disease control, 0 = no control
[15] = 200 ppm, 100 = 100% disease control, 0 = no control
[16] = 40 ppm (compound number followed by *)

Row | Structure (SMILES) | Test A rating (% disease control) [1, 15] [%] | Test B rating (% disease control) [2, 15] [%] | Test C rating (% disease control) [3, 15] [%] | Test D rating (% disease control) [4, 15] [%] | Test E rating (% disease control) [5, 15] [%] | Test F rating (% disease control) [6, 15] [%] | Test G rating (% disease control) [7, 15] [%] | Test H rating (% disease control) [8, 15] [%] | other results
1 | COc1cc(OC)cc(-c2c(CCl)cnc(C)c2-c2c(F)cc(F)cc2F)c1 [Compound 110, 5-(chloromethyl)-4-(3,5-dimethoxyphenyl)-2-methyl-3-(2,4,6-trifluorophenyl)pyridine] |  |  |  |  |  |  |  |  | pest or weed control at 200 ppm [1, 9]: 100%; pest or weed control at 200 ppm [2, 10]: 100%; pest or weed control at 200 ppm [3, 11]: 96%; pest or weed control at 200 ppm [4, 12]: 87%; pest or weed control at 200 ppm [5, 13]: 100%; pest or weed control at 200 ppm [6, 14]: 99%; melting point: 110 to 115 °C
2 | COc1cc(OC)cc(-c2c(-c3ccccc3F)cnc(C)c2-c2ccc(F)cc2)c1 [Compound 35] | 99 | 100 | 99 | 99 | 99 | 99 | 99 | 0 | 
3 | CCc1cnc(C)c(-c2c(F)cc(F)cc2F)c1-c1cc(OC)cc(OC)c1 [Compound 137, 4-(3,5-dimethoxyphenyl)-5-ethyl-2-methyl-3-(2,4,6-trifluorophenyl)pyridine] |  |  |  |  |  |  |  |  | pest or weed control at 40 ppm ([1]; Blumeria graminis, 192 h, 40 ppm (compound number followed by *)): 100%; pest or weed control at 40 ppm ([2]; 192 h, 40 ppm (compound number followed by *)): 100%; pest or weed control at 40 ppm ([3]; Zymoseptoria tritici, 504 h, 40 ppm (compound number followed by *)): 100%; pest or weed control at 40 ppm ([4]; Parastagonospora nodorum, 216 h, 40 ppm (compound number followed by *)): 97%; pest or weed control at 40 ppm ([5]; Alternaria solani, 168 h, 40 ppm (compound number followed by *)): 99%; pest or weed control at 40 ppm ([6]; Botrytis cinerea, 120 h, 40 ppm (compound number followed by *)): 100%; melting point: 102 to 105 °C
4 | CCOC(=O)c1cnc(CC)c(-c2ccccc2)c1-c1cc(OC)cc(OC)c1 [Compound 31] | 0 | 0 | 80 | 0 | 0 | 41 | 0 | 0 | 
5 | COc1cc(OC)cc(-c2c(-c3ccccc3)c(C)nc(C)c2-c2ccccc2F)c1 [Compound 23] | 62 | 80 | 83 | 0 | 0 | 99 | 0 | 0 | 
6 | C=C(C)c1cnc(C)c(-c2ccc(F)cc2)c1-c1cc(OC)cc(OC)c1 [Compound 16, 4-(3,5-dimethoxyphenyl)-3-(4-fluorophenyl)-2-methyl-5-(1-methylethenyl)pyridine] |  |  |  |  |  |  |  |  | pest or weed control at 200 ppm [1, 9]: 99%; pest or weed control at 200 ppm [2, 10]: 100%; pest or weed control at 200 ppm [3, 11]: 100%; pest or weed control at 200 ppm [4, 12]: 73%; pest or weed control at 200 ppm [5, 13]: 99%; pest or weed control at 200 ppm [6, 14]: 99%; pest or weed control at 200 ppm [7, 15]: 99%; pest or weed control at 200 ppm [8, 15]: 0%
7 | COc1cc(OC)cc(-c2c(C(C)C)c[n+]([O-])c(C)c2-c2ccccc2)c1 [Compound 5] | 98 | 92 | 95 | 0 | 90 | 99 | 0 | 0 | 
8 | COc1cc(OC)cc(-c2c(-c3ccccc3)c(C)[n+]([O-])c(C)c2-c2ccccc2F)c1 [Compound 24] |  |  |  |  |  |  |  |  | Test A rating (% disease control) [1, 16]: 91%; Test B rating (% disease control) [2, 16]: 95%; Test C rating (% disease control) [3, 16]: 97%; Test D rating (% disease control) [4, 16]: 0%; Test E rating (% disease control) [5, 16]: 76%; Test F rating (% disease control) [6, 16]: 99%; Test G rating (% disease control) [7, 16]: 0%; Test H rating (% disease control) [8, 16]: 0%
9 | CCOC(=O)c1cnc(C)c(-c2c(F)cc(F)cc2F)c1-c1cc(OC)cc(OC)c1 [Compound 130, ethyl 4-(3,5-dimethoxyphenyl)-6-methyl-5-(2,4,6-trifluorophenyl)-3-pyridinecarboxylate] |  |  |  |  |  |  |  |  | pest or weed control at 200 ppm [1, 9]: 100%; pest or weed control at 200 ppm [2, 10]: 93%; pest or weed control at 200 ppm [4, 12]: 0%; pest or weed control at 200 ppm [5, 13]: 99%; pest or weed control at 200 ppm [6, 14]: 100%; melting point: 93 to 95 °C
10 | CCOC(=O)c1cnc(C)c(-c2ccccc2)c1-c1cc(F)cc(F)c1 [Compound 8] | 98 | 0 | 0 | 0 | 0 | 0 | 0 | 17 | 
11 | CNC(=O)c1cnc(C)c(-c2ccccc2)c1-c1cc(OC)cc(OC)c1 [Compound 9] | 94 | 0 | 86 | 0 | 99 | 37 | 0 | 0 | 
12 | COc1cc(OC)cc(-c2c(C(=O)N(C)C)cnc(C)c2-c2ccccc2)c1 [Compound 10] | 96 | 0 | 33 | 0 | 8 | 80 | 0 | 0 | 
13 | COc1cc(OC)cc(-c2c(C(C)=O)cnc(C)c2-c2c(F)cccc2F)c1 [Compound 41] | 100 | 98 | 99 | 0 | 99 | 98 | 99 | 0 | 
14 | CCOC(=O)c1cnc(C)c(-c2ccccc2)c1-c1cc(OC)c(OC)c(OC)c1 [Compound 6] | 0 | 0 | 1 | 0 | 0 | 89 | 0 | 0 | 
15 | COc1cc(OC)cc(-c2c(C(C)C)cnc(C)c2-c2ccc(F)cc2)c1 [Compound 19, 4-(3,5-dimethoxyphenyl)-3-(4-fluorophenyl)-2-methyl-5-(1-methylethyl)pyridine] |  |  |  |  |  |  |  |  | pest or weed control at 200 ppm [1, 9]: 99%; pest or weed control at 200 ppm [2, 10]: 99%; pest or weed control at 200 ppm [3, 11]: 100%; pest or weed control at 200 ppm [4, 12]: 0%; pest or weed control at 200 ppm [5, 13]: 99%; pest or weed control at 200 ppm [6, 14]: 99%; pest or weed control at 200 ppm [7, 15]: 99%; pest or weed control at 200 ppm [8, 15]: 0%
